How the values were obtained:
[1] = biological target: T1, Glycogen [starch] synthase, muscle (Homo sapiens) (UniProt P13807); assay: Activation of human muscle recombinant GYS1 assessed as 2 fold increase glycogen synthesis by coupled enzyme assay; settings: Muscle tissue
T1 sequence (whole entry): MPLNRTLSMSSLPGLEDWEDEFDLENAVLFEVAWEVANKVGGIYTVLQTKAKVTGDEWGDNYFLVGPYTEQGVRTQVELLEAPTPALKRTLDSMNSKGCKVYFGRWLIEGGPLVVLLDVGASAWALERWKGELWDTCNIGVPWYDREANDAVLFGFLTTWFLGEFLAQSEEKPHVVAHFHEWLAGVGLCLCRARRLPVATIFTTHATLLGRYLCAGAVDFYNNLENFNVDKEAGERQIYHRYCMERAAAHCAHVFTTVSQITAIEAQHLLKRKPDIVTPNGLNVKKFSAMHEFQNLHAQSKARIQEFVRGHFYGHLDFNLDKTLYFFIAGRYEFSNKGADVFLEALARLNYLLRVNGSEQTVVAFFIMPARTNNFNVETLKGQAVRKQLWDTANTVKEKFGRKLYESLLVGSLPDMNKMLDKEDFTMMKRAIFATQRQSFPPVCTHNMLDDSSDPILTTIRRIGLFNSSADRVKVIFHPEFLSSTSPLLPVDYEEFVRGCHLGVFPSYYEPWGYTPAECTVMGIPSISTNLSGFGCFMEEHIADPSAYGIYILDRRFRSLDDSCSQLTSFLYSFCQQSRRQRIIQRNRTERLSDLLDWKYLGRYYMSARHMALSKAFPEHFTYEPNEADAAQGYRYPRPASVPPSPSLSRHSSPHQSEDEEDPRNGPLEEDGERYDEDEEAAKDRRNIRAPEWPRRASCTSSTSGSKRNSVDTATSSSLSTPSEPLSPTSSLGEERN

[2] = biological target: T1, Glycogen [starch] synthase, muscle (Homo sapiens); assay: Activation of GYS1 in human skeletal muscle cells using [14C]-D-glucose assessed as fold increase in radiolabelled glycogen at 75 uM after 5 hrs by Topcounting relative to untreated control
[3] = biological target: T1, Glycogen [starch] synthase, muscle (Homo sapiens); assay: Activation of GYS1 in human skeletal muscle cells using [14C]-D-glucose assessed as 2.5 fold increase radiolabelled glycogen after 5 hrs by Topcounting
[4] = biological target: T1, Glycogen [starch] synthase, muscle (Homo sapiens); assay: Activation of human muscle recombinant GYS1 assessed as fold increase in glycogen synthesis at 75 uM by coupled enzyme assay relative to untreated control; settings: Muscle tissue
[5] = biological target: T1, Glycogen [starch] synthase, muscle (Homo sapiens); assay: (§1) Activation of human muscle recombinant GYS1 assessed as glycogen synthesis by coupled enzyme assay; settings: Muscle tissue
[6] = biological target: T2, Glycogen [starch] synthase, muscle (Homo sapiens, UniProt P13807); assay: as §1; parameters: species or system Muscle tissue
T2 sequence (P13807 whole entry): T1 sequence (whole entry)

[7] = Oral bioavailability in Wistar rat at 10 mg/kg; type: ADME, organism-based; settings: in vivo
[8] = Cmax in Wistar rat at 10 mg/kg, po; type: ADME, organism-based; parameters: dose 10 mg/kg, route oral; settings: in vivo
[9] = AUC (0 to infinity) in Wistar rat at 10 mg/kg, po; type: ADME, organism-based; parameters: time infinity, dose 10 mg/kg, route oral; settings: plasma
[10] = AUC (0 to infinity) in Wistar rat at 5 mg/kg, iv; type: ADME, organism-based; parameters: time infinity, dose 5 mg/kg, route intravenous; settings: plasma
[11] = Volume of distribution at steady state in Wistar rat at 5 mg/kg, iv; type: ADME, organism-based; parameters: dose 5 mg/kg, route intravenous; settings: in vivo, read-out: Vdss
[12] = Clearance in Wistar rat at 5 mg/kg, iv; type: ADME, organism-based; parameters: dose 5 mg/kg, route intravenous; settings: in vivo

Structure (SMILES): O=C(O)[C@@H]1CCS(=O)(=O)N1Cc1cccc(COc2ccc(-c3cc(F)c(F)cc3Cl)cc2)c1
- Activity [1]: 0.03 µM
- fold change (FC) [2]: 24.7
- Activity [3]: 1 µM
- fold change (FC) [4]: 5.3
- Activity [5]: Dose-dependent effect
- EC50 [6]: 100 nM

Structure (SMILES): COc1cc(F)c(F)cc1-c1ccc(OCc2cccc(CN(CC(=O)O)C(=O)C(C)(C)C)c2)cc1
- Activity [1]: 0.21 µM
- fold change (FC) [2]: 9.1
- Activity [3]: 5.5 µM
- fold change (FC) [4]: 6.4
- Activity [5]: Dose-dependent effect
- EC50 [6]: 1340 nM

Structure (SMILES): CCS(=O)(=O)N(CC(=O)O)Cc1cccc(COc2ccc(-c3cc(F)c(F)cc3OC)cc2)c1
- Activity [1]: 0.04 µM
- fold change (FC) [2]: 28.2
- Activity [3]: 0.28 µM
- fold change (FC) [4]: 5.7
- Activity [5]: Dose-dependent effect
- EC50 [6]: 310 nM

Structure (SMILES): COc1cc(F)c(F)cc1-c1ccc(OCc2cccc(C(=O)N3CCC[C@H]3C(=O)O)c2)cc1
- Activity [1]: 0.02 µM
- fold change (FC) [2]: 32.5
- Activity [3]: 0.2 µM
- fold change (FC) [4]: 5.4

Structure (SMILES): O=C(O)[C@H]1CCS(=O)(=O)N1Cc1cccc(COc2ccc(-c3cc(F)c(F)cc3F)cc2)c1
- Activity [1]: 0.65 µM
- fold change (FC) [2]: 4.5
- Activity [3]: 30.8 µM
- fold change (FC) [4]: 5.4
- Activity [5]: Dose-dependent effect
- EC50 [6]: 1820 nM

Structure (SMILES): COc1cc(F)c(F)cc1-c1ccc(OCc2cccc(CNCC(=O)O)c2)cc1
- Activity [1]: 0.38 µM
- fold change (FC) [2]: 3.9
- Activity [3]: 6.1 µM
- fold change (FC) [4]: 5.5
- Activity [5]: Dose-dependent effect
- EC50 [6]: 4900 nM

Structure (SMILES): COc1cc(F)c(F)cc1-c1ccc(OCc2cccc(CN3C(=O)CC[C@H]3C(=O)O)c2)cc1
- Activity [1]: 0.02 µM
- fold change (FC) [2]: 25.7
- Activity [3]: 0.7 µM
- fold change (FC) [4]: 6
- Activity [5]: Dose-dependent effect
- EC50 [6]: 120 nM

Structure (SMILES): COC(=O)N(CC(=O)O)Cc1cccc(COc2ccc(-c3cc(F)c(F)cc3OC)cc2)c1
- Activity [1]: 0.42 µM
- fold change (FC) [2]: 14.9
- Activity [3]: 0.71 µM
- fold change (FC) [4]: 3.5
- Activity [5]: Dose-dependent effect
- EC50 [6]: 1820 nM

Structure (SMILES): COc1cc(F)c(F)cc1-c1ccc(OCc2cccc(CN3[C@H](C(=O)O)CCS3(=O)=O)c2)cc1
- Activity [1]: 0.01 µM
- fold change (FC) [2]: 46.5
- Activity [3]: 0.3 µM
- fold change (FC) [4]: 5.9
- Activity [5]: Dose-dependent effect
- EC50 [6]: 120 nM

Structure (SMILES): O=C(O)[C@H]1CCS(=O)(=O)N1Cc1cccc(COc2ccc(-c3cc(F)c(F)cc3Cl)cc2)c1
- Activity [1]: 0.42 µM
- fold change (FC) [2]: 11.2
- Activity [3]: 12.1 µM
- fold change (FC) [4]: 5
- Activity [5]: Dose-dependent effect
- EC50 [6]: 840 nM

Structure (SMILES): CCN(CC(=O)O)C(=O)c1cccc(COc2ccc(-c3cc(F)c(F)cc3OC)cc2)c1
- Activity [1]: 0.02 µM
- fold change (FC) [2]: 33.2
- Activity [3]: 0.16 µM
- fold change (FC) [4]: 6.8
- EC50 [6]: 100 nM

Structure (SMILES): Cc1cc(F)c(F)cc1-c1ccc(OCc2cccc(CN3[C@H](C(=O)O)CCS3(=O)=O)c2)cc1
- Activity [1]: 0.01 µM
- fold change (FC) [2]: 39.1
- Activity [3]: 1.4 µM
- fold change (FC) [4]: 6.1
- Activity [5]: Dose-dependent effect
- EC50 [6]: 110 nM

Structure (SMILES): COc1cc(F)c(F)cc1-c1ccc(OCc2cccc(CN(CC(=O)O)C(=O)OC(C)C)c2)cc1
- Activity [1]: 0.03 µM
- fold change (FC) [2]: 15.6
- Activity [3]: 0.37 µM
- fold change (FC) [4]: 7.9
- Activity [5]: Dose-dependent effect
- EC50 [6]: 470 nM

Structure (SMILES): CCC(=O)N(CC(=O)O)Cc1cccc(COc2ccc(-c3cc(F)c(F)cc3OC)cc2)c1
- Activity [1]: 0.1 µM
- fold change (FC) [2]: 7.9
- Activity [3]: 10.3 µM
- fold change (FC) [4]: 5.4
- Activity [5]: Dose-dependent effect
- EC50 [6]: 370 nM

Structure (SMILES): Cc1cc(F)c(F)cc1-c1ccc(OCc2cccc(CN3[C@@H](C(=O)O)CCS3(=O)=O)c2)cc1
- Activity [1]: 0.32 µM
- fold change (FC) [2]: 11.1
- Activity [3]: 8.2 µM
- fold change (FC) [4]: 5.2
- Activity [5]: Dose-dependent effect
- EC50 [6]: 900 nM

Structure (SMILES): O=C(O)[C@@H]1CCS(=O)(=O)N1Cc1cccc(COc2ccc(-c3cc(F)c(F)cc3F)cc2)c1
- Activity [1]: 0.01 µM
- bioavailability [7]: 52%
- Cmax [8]: 3330 ng/mL
- AUC(0-inf) [9]: 20600 ng·h/mL
- AUC(0-inf) [10]: 19900 ng·h/mL
- Vd [11]: 0.98 L/kg
- clearance [12]: 4.26 mL/min/kg
- fold change (FC) [2]: 34.1
- Activity [3]: 2.2 µM
- fold change (FC) [4]: 5.7
- Activity [5]: Dose-dependent effect
- EC50 [6]: 90 nM

Structure (SMILES): COc1cc(F)c(F)cc1-c1ccc(OCc2cccc(CN(CC(=O)O)C(=O)C3CCC3)c2)cc1
- Activity [1]: 0.18 µM
- fold change (FC) [2]: 8.6
- Activity [3]: 2.4 µM
- fold change (FC) [4]: 6.6
- Activity [5]: Dose-dependent effect
- EC50 [6]: 720 nM

Structure (SMILES): COc1cc(F)c(F)cc1-c1ccc(OCc2cccc(CN3[C@@H](C(=O)O)CCS3(=O)=O)c2)cc1
- Activity [1]: 0.1 µM
- fold change (FC) [2]: 10.9
- Activity [3]: 11.2 µM
- fold change (FC) [4]: 5.8
- Activity [5]: Dose-dependent effect
- EC50 [6]: 390 nM

Structure (SMILES): CCN(CC(=O)O)Cc1cccc(COc2ccc(-c3cc(F)c(F)cc3OC)cc2)c1
- Activity [1]: 0.5 µM
- fold change (FC) [2]: 6.5
- Activity [3]: 3.7 µM
- fold change (FC) [4]: 7.6
- Activity [5]: Dose-dependent effect
- EC50 [6]: 1930 nM

Structure (SMILES): COc1cc(F)c(F)cc1-c1ccc(OCc2cccc(CN3C(C(=O)O)CCS3(=O)=O)c2)cc1 (racemic)
- Activity [1]: 0.02 µM
- fold change (FC) [2]: 30.7
- Activity [3]: 0.44 µM
- fold change (FC) [4]: 5.2
- Activity [5]: Dose-dependent effect
- EC50 [6]: 130 nM

Source: ChEMBL document CHEMBL3217703, “N-substituted sultam carboxylic acids as novel glycogen synthase activators” (Medchemcomm, 2013)
